Earlier results as cited in the PKSmart pharmacokinetics tables (Seal et al. 2025).
Where a SMILES comes first, the peptide text is derived from it. Bridges are numbered along the chain shown (N, C = ends).

Assay: not given per row; by the article one of three: Lombardo et al. 2013, J Clin Pharmacol 53:178, doi 10.1177/0091270012440282; 'New Drugs at FDA', novel drug approvals for 2021 and 2022 (the article's reference 43); Yap, Li, Chen 2006, J Mol Graph Model 24:383, doi 10.1016
Settings: human; in vivo
For `O=C(CO)NCCCOc1cccc(CN2CCCCC2)c1`, the clearance is listed as 0.404 L/h/kg.
In the case of `O=C1Nc2ccc(Cl)cc2[C@@](C#CC2CC2)(C(F)(F)F)O1`, the clearance is listed as 0.186 L/h/kg.
For `O=C(Cn1ccnc1[N+](=O)[O-])NCCO`, the clearance is given as 0.104 L/h/kg.
For `C[C@H](O)C1C(=O)N2C(C(=O)[O-])=C(SC3Cn4cnc[n+]4C3)[C@@H](C)[C@@H]12` (some centres undefined), the clearance is given as 0.166 L/h/kg.
In the case of `CCN(CC)CC#CCOC(=O)[C@](O)(c1ccccc1)C1CCCCC1`, the clearance is given as 0.486 L/h/kg.
For `CN(C[C@H](O)CO)C(=O)c1c(I)c(NC(=O)C(CO)CO)c(I)c(C(=O)N(C)C[C@H](O)CO)c1I`, the clearance is given as 0.0798 L/h/kg.
For `CC12CCC(=O)C=C1C1CC1C1C2CCC2(C)C1C1CC1C21CCC(=O)O1` (centres undefined), the half-life is listed as 34 h.
In the case of `O=C(O)C1/C(=C\CO)O[C@H]2CC(=O)N12` (some centres undefined), the clearance is given as 0.216 L/h/kg.
In the case of `Cc1nc2ccc(CN(C)c3ccc(C(=O)NC(CCC(=O)O)C(=O)O)s3)cc2c(=O)[nH]1` (centres undefined), the clearance is given as 0.0354 L/h/kg.
In the case of `COCCCOc1ccnc(C[S@@+](O)c2nc3ccccc3[n-]2)c1C`, the clearance is listed as 0.36 L/h/kg.
In the case of `CN1CC[C@@]23c4c5ccc(O)c4OC2C(=O)CC[C@@H]3[C@@H]1C5` (some centres undefined), the clearance is listed as 1.15 L/h/kg.
In the case of `CC(C)NC[C@@H](O)COc1cccc2ccccc12`, the clearance is given as 0.82 L/h/kg.
For `CCN(CC)CCC[C@@H](C)Nc1ccnc2cc(Cl)ccc12`, the clearance is listed as 0.425 L/h/kg.
For `C[C@@H]1[C@H](c2c(F)ccc(F)c2F)CC(NC(=O)c2cnc3c(c2)C[C@@]2(C3)C(=O)Nc3ncccc32)C(=O)N1CC(F)(F)F` (some centres undefined), the Vd is listed as 4.87 L/kg, the clearance is listed as 0.317 L/h/kg and the half-life is listed as 11 h.
In the case of `CNC[C@@H](O)c1cccc(O)c1`, the clearance is given as 1.79 L/h/kg.
In the case of `NCCCCC(NC(=O)C1CCCN1C(=O)C1CSSCC(NC(=O)CNC(=O)CNC(=O)CN)C(=O)NC(Cc2ccc(O)cc2)C(=O)NC(Cc2ccccc2)C(=O)NC(CCC(N)=O)C(=O)NC(CC(N)=O)C(=O)N1)C(=O)NCC(N)=O` (centres undefined) (H-GGGCYFQNCPKG-NH2; disulfide 4-9; configuration not given here), the Vd is listed as 0.11 L/kg, the clearance is listed as 0.457 L/h/kg and the half-life is listed as 0.9 h.
In the case of `Nc1nc(NC2CC2)c2ncn([C@@H]3C=C[C@H](CO)C3)c2n1`, the clearance is listed as 0.784 L/h/kg.
For `COc1ccc2c(c1)N[C@@H]([S@@+](O)Cc1ncc(C)c(OC)c1C)N2`, the clearance is given as 0.229 L/h/kg.
In the case of `CO[C@]1(NC(=O)C(C(=O)O)c2ccc(O)cc2)C(=O)N2C(C(=O)O)=C(CSc3nnnn3C)CO[C@@H]21` (some centres undefined), the clearance is listed as 0.0792 L/h/kg.
For `NC(=O)N1c2ccccc2C=Cc2ccccc21`, the clearance is listed as 0.0666 L/h/kg.
In the case of `COc1cc2c(cc1OC)C(=O)C(CC1CCN(Cc3ccccc3)CC1)C2` (centres undefined), the clearance is listed as 0.152 L/h/kg.
For `C[C@H](NCCc1ccc(O)cc1)[C@H](O)c1ccc(O)cc1`, the clearance is listed as 0.52 L/h/kg.
In the case of `COc1cc2c(cc1OC)CN(C(=O)C(C)NC(CCc1ccccc1)C(=O)O)C(C(=O)O)C2` (centres undefined), the clearance is given as 0.199 L/h/kg.
For `O=C(O)CCCCCCNC1c2ccccc2CCc2ccccc21`, the clearance is listed as 1.77 L/h/kg.
In the case of `CC1(C)S[C@H]2C(NC(=O)C(NC(=O)N3CCNC3=O)c3ccccc3)C(=O)N2C1C(=O)O` (some centres undefined), the clearance is listed as 0.151 L/h/kg.
For `COc1ccccc1OCCNC[C@@H](O)COc1cccc2[nH]c3ccccc3c12`, the clearance is listed as 0.522 L/h/kg.
For `C[C@H](CN1CC(=O)NC(=O)C1)N1CC(=O)NC(=O)C1`, the clearance is listed as 0.265 L/h/kg.
In the case of `CCN(CC)C(=O)N[C@H]1C[C@@H]2c3cccc4[nH]cc(c34)C[C@H]2N(C)C1`, the clearance is listed as 0.96 L/h/kg.
In the case of `Cc1c(C(C)C)c(=O)n(-c2ccccc2)n1C`, the clearance is listed as 0.66 L/h/kg.
In the case of `CCCCC1(CCCC)CN(c2ccccc2)c2cc(SC)c(OCC(=O)NC(C(=O)NC(CC)C(=O)O)c3ccc(O)cc3)cc2S(=O)(=O)N1` (centres undefined), the half-life is listed as 2.36 h.
For `NC(=O)c1cc[n+](COC[n+]2ccccc2C=NO)cc1`, the clearance is listed as 0.192 L/h/kg.
In the case of `CCC1=C(C)CN(C(=O)NCCc2ccc(S(=O)(=O)NC(=O)NC3CCC(C)CC3)cc2)C1=O` (centres undefined), the clearance is given as 0.0456 L/h/kg.
In the case of `NS(=O)(=O)c1cc2c(cc1Cl)N=CNS2(=O)=O`, the clearance is listed as 0.27 L/h/kg.
In the case of `COc1ccc(OC)c(Cc2cnc3nc(N)nc(N)c3c2C)c1`, the clearance is given as 0.133 L/h/kg.
In the case of `OCCOCCN1CCN(C2=Nc3ccccc3Sc3ccccc32)CC1`, the clearance is given as 1.14 L/h/kg.
For `CON=C(C(=O)NC1C(=O)N2C(C(=O)[O-])=C(C[N+]34CCC(C(N)=O)(CC3)CC4)CS[C@H]12)c1nsc(N)n1` (some centres undefined), the clearance is given as 0.129 L/h/kg.
For `O=c1[nH]c2ccccc2n1C1CCN(CCCC(c2ccc(F)cc2)c2ccc(F)cc2)CC1`, the clearance is given as 0.246 L/h/kg.
In the case of `CC/C(=C(/c1ccccc1)c1ccc(OCCN(C)C)cc1)c1ccccc1`, the clearance is given as 0.084 L/h/kg.
In the case of `CCN1CC(C(=O)O)C(=O)c2ccc(-c3ccncc3)cc21` (centres undefined), the clearance is listed as 0.12 L/h/kg.
In the case of `CC(C(=O)O)c1ccc2oc(-c3ccc(Cl)cc3)nc2c1` (centres undefined), the clearance is given as 0.0042 L/h/kg.
For `CCc1ccc(CCOc2ccc(Cc3sc(=O)[nH]c3O)cc2)nc1`, the clearance is listed as 0.0858 L/h/kg.
For `Nc1nc(=O)c2c([nH]1)N[C@@H]1O[C@@H]3COP(=O)(O)O[C@@H]3C(O)(O)[C@@H]1N2`, the Vd is listed as 0.3 L/kg, the clearance is listed as 0.181 L/h/kg and the half-life is listed as 1.45 h.
In the case of `CN1c2ccccc2[C@H](NCCCCCCC(=O)O)c2ccc(Cl)cc2S1(=O)=O`, the clearance is listed as 0.206 L/h/kg.
In the case of `CN1c2c(oc(=O)n(-c3ccccn3)c2=O)-c2ccccc2S1(=O)=O`, the clearance is listed as 0.003 L/h/kg.
For `COC[C@H]1CN=C(c2ccccc2Cl)c2cc(Br)ccc2N1C`, the clearance is given as 0.664 L/h/kg.

Same assay, conditions: human; plasma
In the case of `C1=C/COCc2cc(ccc2OCCN2CCCC2)Nc2nccc(n2)-c2cccc(c2)COC/1`, the fraction unbound is listed as 0.01.
In the case of `O=C(CCC(C(=O)O)N1CCN(C(CCC(=O)NCC(O)CO)C(=O)O)Cc2cccc(n2)CN(C(CCC(=O)NCC(O)CO)C(=O)O)CC1)NCC(O)CO` (centres undefined), the fraction unbound is given as 0.98.
For `CCCCC1(CCCC)CS(=O)(=O)c2ccc(N(C)C)cc2[C@@H](c2ccc(OCc3ccc(C[N+]45CCN(CC4)CC5)cc3)cc2)[C@H]1O`, the fraction unbound is listed as 0.09.
In the case of `CC(=O)C1CC[C@H]2[C@@H]3CC[C@H]4C[C@](C)(O)CC[C@]4(C)[C@H]3CC[C@]12C` (some centres undefined), the fraction unbound is given as 0.01.
In the case of `CCN1CCN(c2ccc(Nc3cc(N(C)C(=O)Nc4c(Cl)c(OC)cc(OC)c4Cl)ncn3)cc2)CC1`, the fraction unbound is given as 0.03.
In the case of `CC12CCC(=O)C=C1C1CC1C1C2CCC2(C)C1C1CC1C21CCC(=O)O1` (centres undefined), the fraction unbound is listed as 0.04.
In the case of `C[C@@H]1[C@H](c2c(F)ccc(F)c2F)CC(NC(=O)c2cnc3c(c2)C[C@@]2(C3)C(=O)Nc3ncccc32)C(=O)N1CC(F)(F)F` (some centres undefined), the fraction unbound is given as 0.05.
In the case of `CCCCC1(CCCC)CN(c2ccccc2)c2cc(SC)c(OCC(=O)NC(C(=O)NC(CC)C(=O)O)c3ccc(O)cc3)cc2S(=O)(=O)N1` (centres undefined), the fraction unbound is listed as 0.01.
